Like-named read-outs stand apart in the source and are kept apart here.
What was measured:
[1] = tested on: MDR1-MDCK cell monolayers; assay: MDR1/MDCK permeability assay; format: in vitro ADME; details: for MDCK Permeability (MDR1-MDCK); Mean; Papp(A-B) (10^−6 cm/s): A to B; for MDCK Permeability (MDR1-MDCK); Mean; Papp(B-A) (10^−6 cm/s): B to A
In short: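 Confluent MDR1-MDCK monolayers (7–11 days old), compound dosed at 5 μM in HBSSg (≤1% DMSO) apically or basolaterally, pH 7.4 both sides, receiver with 1% BSA, N=2. Both sides sampled at 120 min and quantified by LC-MS/MS; Papp in each direction, efflux ratio B-A/A-B and recovery reported.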

[2] = target: T1, GSK3b (GST-full length GSK3b) (Homo sapiens, UniProt P49841); assay: GSK3b TR-FRET kinase inhibition assay; format: biochemical
T1 construct: GST-full length GSK3b: [SignalChem G08-9G]; purchased SignalChem G08-9G
T1 sequence (P49841 whole entry): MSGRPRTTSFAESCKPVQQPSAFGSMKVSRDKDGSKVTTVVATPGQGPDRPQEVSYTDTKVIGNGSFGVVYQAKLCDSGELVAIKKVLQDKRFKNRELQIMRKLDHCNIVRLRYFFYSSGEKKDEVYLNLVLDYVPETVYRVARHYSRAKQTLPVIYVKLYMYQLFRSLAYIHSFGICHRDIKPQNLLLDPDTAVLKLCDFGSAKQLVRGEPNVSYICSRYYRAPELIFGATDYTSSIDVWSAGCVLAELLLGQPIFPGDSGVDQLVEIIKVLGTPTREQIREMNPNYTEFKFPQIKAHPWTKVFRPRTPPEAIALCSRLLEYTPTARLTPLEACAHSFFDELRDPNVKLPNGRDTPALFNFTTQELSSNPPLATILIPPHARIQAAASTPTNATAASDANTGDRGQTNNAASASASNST
In short: (§1)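 IC50 derived from normalized 665/615 TR-FRET signal (Tb anti-pSer641 antibody, streptavidin-d2), read after EDTA stop. Reaction: 1 nM GST-full-length enzyme, 30 min compound pre-incubation, 100 min at ambient temperature in Tris pH 7.5 with 1% DMSO, 200 nM biotinylated primed glycogen synthase peptide, ATP 2 μM to 1 mM.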

[3] = Human liver microsomal stability; format: in vitro ADME; details: human liver microsomes
In short: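 Compound incubated at 1 µM with human liver microsomes for 60 min at 37 °C, in duplicate. Percent remaining derived from compound level at 60 min relative to 0 min. Controls: microsomes with NADPH and no compound; compound with microsomes lacking NADPH.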

[4] = target: T2, GSK3a (GST-full length GSK3a) (Homo sapiens, UniProt P49840); assay: GSK3a TR-FRET kinase inhibition assay; format: biochemical
T2 construct: GST-full length GSK3a [SignalChem G08-10G]; purchased SignalChem G08-10G
T2 sequence (P49840 whole entry): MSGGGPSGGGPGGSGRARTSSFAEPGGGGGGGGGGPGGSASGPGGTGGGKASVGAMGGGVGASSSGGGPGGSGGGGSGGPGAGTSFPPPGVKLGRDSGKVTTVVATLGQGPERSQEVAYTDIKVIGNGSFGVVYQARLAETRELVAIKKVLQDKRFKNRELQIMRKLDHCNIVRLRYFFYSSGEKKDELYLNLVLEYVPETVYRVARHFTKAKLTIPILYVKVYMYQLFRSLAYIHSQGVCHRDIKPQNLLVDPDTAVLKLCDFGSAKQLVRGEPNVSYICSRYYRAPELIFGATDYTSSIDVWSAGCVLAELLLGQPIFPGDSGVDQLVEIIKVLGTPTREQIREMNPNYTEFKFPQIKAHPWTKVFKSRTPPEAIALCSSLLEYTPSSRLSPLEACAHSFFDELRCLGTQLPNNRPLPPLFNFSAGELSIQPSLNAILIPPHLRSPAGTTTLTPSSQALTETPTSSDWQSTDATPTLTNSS
In short: as §1

[5] = 2 μM ATP, read-out: GSK3β TR-FRET 2 μM ATP GMean IC50
[6] = 1 mM ATP, Table 4, read-out: GSK3β TR-FRET 1 mM ATP GMean IC50
[7] = 4 μM ATP, read-out: GSK3α TR-FRET 4 μM ATP GMean IC50
[8] = 1 mM ATP, Table 4, read-out: GSK3α TR-FRET 1 mM ATP GMean IC50

Compound | MDCK Permeability (MDR1-MDCK); Mean; Papp(A-B) (10^−6 cm/s) ([1]; Table 4) | MDCK Permeability (MDR1-MDCK); Mean; Papp(B-A) (10^−6 cm/s) ([1]; Table 4) | MDCK Permeability (MDR1-MDCK); Mean; P. Ratio(B-A/A-B) Efflux Ratio ([1]; Papp B-A/A-B, Table 4) | IC50 [2, 5] | IC50 [2, 6] | Microsome Stability (Human) (DMPK_BIIB); Mean; in vitro t1/2 ([3]; Table 4) | IC50 [4, 7] | IC50 [4, 8] | IC50 ([2]; 1 mM ATP, Table 3, read-out: GSK3b TR-FRET 1 mM ATP Average IC50) | IC50 ([4]; 1 mM ATP, Table 3, read-out: GSK3a TR-FRET 1 mM ATP Average IC50) | MDCK Permeability (MDR1-MDCK); Mean; Papp(A-B) (10^−6 cm/s) ([1]; Table 3) | MDCK Permeability (MDR1-MDCK); Mean; Papp(B-A) (10^−6 cm/s) ([1]; Table 3) | MIDCK Permeability (MDR1-MDCK); Mean; P. Ratio(B-A/A-B) Efflux Ratio ([1]; Papp B-A/A-B, Table 3) | Microsome Stability (Human) (DMPK_BIIB); Mean; in vitro t1/2 ([3]; Table 3)
CCC1(c2cccc(-c3ccnc4c3CCCC4)c2)C2=C(CC(C)(C)CC2=O)Nc2ncccc21 (single isomer, unassigned) [Compound 1039B] | 6.6 10^−6 cm/s | 22 10^−6 cm/s | 3.3 | ≤ 100 nM | 1000 to 5000 nM | 4.6 min | ≤ 100 nM | 100 to 1000 nM | – | – | – | – | – | –
CCC1(c2cccc(-c3cncn3C(C)C)c2)C2=C(CC(C)(C)CC2=O)Nc2ncc(F)cc21 (single isomer, unassigned) [Compound 1038B] | 0.70 10^−6 cm/s | 34 10^−6 cm/s | 49 | 100 to 1000 nM | – | 13 min | ≤ 100 nM | – | – | – | – | – | – | –
CCC1(c2cccc(-c3cncn3C(C)C)c2)C2=C(CC(C)(C)CC2=O)Nc2ncc(F)cc21 (single isomer, unassigned) [Compound 1038A] | 0.90 10^−6 cm/s | 41 10^−6 cm/s | 43 | ≤ 100 nM | – | 16 min | ≤ 100 nM | – | – | – | – | – | – | –
CCC1(c2cccc(-c3ccncc3)c2)C2=C(CC(C)(C)CC2=O)Nc2ncccc21 (single isomer, unassigned) [Compound 1017A] | 6.9 10^−6 cm/s | 32 10^−6 cm/s | 4.6 | 100 to 1000 nM | – | 6.2 min | ≤ 100 nM | – | – | – | – | – | – | –
CCC1(c2ccccc2)C2=C(CC(C)(C)NC2=O)Nc2ncc(F)cc21 (single isomer, unassigned) [Compound 1007B] | 7.8 10^−6 cm/s | 45 10^−6 cm/s | 5.7 | ≤ 100 nM | 5000 to 20000 nM | 211 min | ≤ 100 nM | 1000 to 5000 nM | – | – | – | – | – | –
CCC1(c2cccc(-c3c(F)cncc3OC)c2)C2=C(CC(C)(C)CC2=O)Nc2ncc(F)cc21 (single isomer, unassigned) [Compound 161B] | 5.2 10^−6 cm/s | 33 10^−6 cm/s | 6.4 | ≤ 100 nM | ≤ 100 nM | 5.6 min | ≤ 100 nM | ≤ 100 nM | 1000 to 5000 nM | 100 to 1000 nM | – | – | – | –
CCC1(c2cccc(-c3c(F)cncc3OC)c2)C2=C(CC(C)(C)CC2=O)Nc2ncccc21 (single isomer, unassigned) [Compound 154A] | – | – | – | > 5000 nM | – | – | > 5000 nM | – | – | – | 15 10^−6 cm/s | 9.5 10^−6 cm/s | 0.62 | 6.4 min
CCC1(c2cccc(-c3ccnn3C)c2)C2=C(CC(C)(C)CC2=O)Nc2ncc(F)cc21 (single isomer, unassigned) [Compound 1025A] | 4.6 10^−6 cm/s | 42 10^−6 cm/s | 9.1 | ≤ 100 nM | – | 5.5 min | ≤ 100 nM | – | – | – | – | – | – | –
